# According to ChEMBL document CHEMBL5512658, “Development of benzimidazole-based compounds as novel capsid assembly modulators for the treatment of HBV infection” (Eur J Med Chem, 2024):
# The source made the active and inactive calls. No cut-off for these calls is given here.
# Key:
# HepG2 = assay: Cytotoxicity against human HepG2 cells measured after 3 days by resazurin staining based analysis; format: functional; conditions: HepG2, 72 h, time 3 day
# [1] = test system: Hepatitis B virus core protein; assay: Selectivity index, ratio of CC50 for human HepG2 cells to IC50 for Hepatitis B virus core protein expressed in HEK293T cells; format: toxicity, cell-based; conditions: read-out: Ratio CC50/IC50
# Core antigen = Core antigen (Hepatitis B virus, UniProt Q03732); assay: Inhibition of Hepatitis B virus core protein expressed in HBC cells derived from HEK293T cells assessed as reduction in HBcAg level incubated for 6 hrs by Nano-glo luciferase assay; format: cell-based
# Hepatitis B virus [2] = assay: Antiviral activity against HBV infected in human HePAD38 cells assessed as reduction in intracellular core HBV DNA level media replaced for every 2 to 3 days incubated for 7 days by Western blot analysis; format: functional, organism-based
# Hepatitis B virus [3] = assay: Antiviral activity against HBV infected in human HePAD38 cells assessed as inhibition of HBV capsid assembly by measuring secretion of particles containing HBV DNA at 5 uM incubated for 7 days by Southern blot analysis; format: functional, organism-based; conditions: time 7.0 day
# Hepatitis B virus [4] = assay: Antiviral activity against HBV infected in human HePAD38 cells assessed as reduction HBV capsid level at 5 uM media replaced for every 2 to 3 days incubated for 7 days by Western blot analysis; format: functional, organism-based; conditions: time 7.0 day
# Chain of Core antigen (Q03732 whole entry): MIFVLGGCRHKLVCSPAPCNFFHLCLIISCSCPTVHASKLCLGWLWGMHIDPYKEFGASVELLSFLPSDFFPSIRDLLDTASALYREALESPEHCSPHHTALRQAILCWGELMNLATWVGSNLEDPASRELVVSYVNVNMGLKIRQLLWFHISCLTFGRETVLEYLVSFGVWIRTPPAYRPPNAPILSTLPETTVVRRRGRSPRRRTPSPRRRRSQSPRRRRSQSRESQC
Compound,CC50 (HepG2),selectivity ratio [1],IC50 (Core antigen; read-out: IC50),EC50 (Hepatitis B virus [2]),Activity (Hepatitis B virus [3]),Activity (Hepatitis B virus [4]),IC50 (Core antigen; hbc)
COc1ccc(Cc2nc3ccccc3n2CCCCc2ccccc2)cc1,44.6 µM,1.61,27.7 µM,–,–,–,–
COCC(O)Cn1c(Cc2ccc(OC)cc2)nc2ccccc21 (stereo unspecified),> 100 µM,> 30.1,3.32 µM,–,–,–,–
COc1ccc(Cc2nc3ccccc3n2CC(O)COc2ccccc2)cc1 (stereo unspecified),12.3 µM,6.18,1.99 µM,0.07 µM,–,–,–
Clc1ccc(Sc2nc3ccccc3[nH]2)cc1Cl,> 100 µM,> 9.03,11.1 µM,–,–,–,–
COc1ccc(Cc2nc3ccccc3n2CCCOc2cccnc2)cc1,13.4 µM,11.1,1.21 µM,–,–,–,–
OCCn1c(Sc2ccc(Cl)c(Cl)c2)nc2ccccc21,> 100 µM,> 14.3,7 µM,–,–,–,–
COc1ccc(Cc2nc3ccccc3n2CC(O)CO)cc1 (stereo unspecified),> 100 µM,> 32.6,3.07 µM,–,–,–,–
COc1ccc(Cc2nc3ccccc3n2CCCOC(C)=O)cc1,> 100 µM,> 7.15,14 µM,–,Active,–,–
COc1ccc(Cc2nc3ccccc3n2CCCCO)cc1,34.4 µM,14.1,2.45 µM,–,Active,Active,–
COc1ccc(Cc2nc3ccccc3n2-c2ccccc2)cc1,14.2 µM,–,52.9 µM,–,–,–,–
Clc1ccc(Sc2nc3ccccc3[nH]2)cc1,13.7 µM,4.65,2.94 µM,–,–,–,–
Cc1ccc(Sc2nc3ccccc3[nH]2)cc1,61 µM,8.96,6.81 µM,–,–,–,–
Brc1ccc(Sc2nc3ccccc3[nH]2)cc1,13.9 µM,7.73,1.8 µM,–,–,–,–
COc1ccc(Cc2nc3ccccc3n2C[C@H](O)COc2ccccc2)cc1,15.2 µM,6.18,2.46 µM,–,–,–,–
COc1ccc(CCCc2nc3ccccc3[nH]2)cc1,47 µM,2.06,22.8 µM,–,Active,Active,–
COc1ccc(Cc2nc3ccccc3n2C2CCC2)cc1,89.6 µM,3.29,27.2 µM,–,–,–,–
COc1ccc(Sc2nc3ccccc3n2C)cc1,25.8 µM,4.54,5.68 µM,–,–,–,–
COc1ccc(Cc2nc3ccccc3n2CCCOc2ccccc2)cc1,12.7 µM,10.2,1.25 µM,–,–,–,–
Fc1cc(F)cc(Sc2nc3ccccc3[nH]2)c1,> 100 µM,> 5.07,19.7 µM,–,–,–,–
COc1ccc(CCc2nc3ccccc3[nH]2)cc1,> 100 µM,> 2.91,34.3 µM,–,Active,Active,–
COc1ccc(C2(c3nc4ccccc4[nH]3)CC2)cc1,> 100 µM,> 4.58,21.8 µM,–,–,–,–
COc1ccc([S+]([O-])c2nc3ccccc3[nH]2)cc1 (stereo unspecified),34 µM,0.93,36.5 µM,–,–,–,–
CCOC(=O)Cn1c(Cc2ccc(OC)cc2)nc2ccccc21,22.1 µM,2.35,9.41 µM,–,–,–,–
CCc1ccc(Sc2nc3ccccc3[nH]2)cc1,17.2 µM,4.37,3.93 µM,–,–,–,–
OCCn1c(Sc2cccc(F)c2)nc2ccccc21,> 100 µM,> 2.03,49.3 µM,–,–,–,–
COc1ccc(Sc2nc3ccccc3n2C(C)=O)cc1,> 100 µM,> 8.37,12 µM,–,–,–,–
OCCn1c(Sc2ccc(Cl)cc2)nc2ccccc21,50.7 µM,14.1,3.6 µM,6.37 µM,–,–,–

Compound,CC50 (HepG2),selectivity ratio [1],IC50 (Core antigen; read-out: IC50),EC50 (Hepatitis B virus [2]),Activity (Hepatitis B virus [3]),Activity (Hepatitis B virus [4]),IC50 (Core antigen; hbc)
COc1ccc(Cc2nc3ccccc3n2CCCBr)cc1,26.2 µM,3.34,7.85 µM,–,–,–,–
CCn1c(Cc2ccc(OC)cc2)nc2ccccc21,29.5 µM,6.55,4.51 µM,–,–,–,–
COc1ccc(S(=O)(=O)c2nc3ccccc3[nH]2)cc1,65.2 µM,2.42,26.9 µM,–,–,–,–
COCC(Cn1c(Cc2ccc(OC)cc2)nc2ccccc21)OC (stereo unspecified),> 100 µM,> 5.06,19.8 µM,–,–,–,–
CCCn1c(Cc2ccc(OC)cc2)nc2ccccc21,> 100 µM,> 8.79,11.4 µM,–,–,–,–
CCOC(=O)n1c(Cc2ccc(OC)cc2)nc2ccccc21,44.2 µM,20.3,2.18 µM,–,Active,Active,–
COc1ccc(Cc2nc3ccccc3n2CCCO)cc1,> 100 µM,> 24,4.17 µM,–,Active,–,–
COc1ccc(Cc2nc3ccccc3n2C(C)C)cc1,37.1 µM,0.96,41.5 µM,–,–,–,–
Clc1cccc(Sc2nc3ccccc3[nH]2)c1,> 100 µM,> 3.77,26.5 µM,–,–,–,–
Fc1ccc(Sc2nc3ccccc3[nH]2)cc1,13.3 µM,1.11,12 µM,–,–,–,–
COc1ccc(Cc2nc3ccccc3n2CCCNc2ccccc2)cc1,12.3 µM,9.73,1.26 µM,–,–,–,–
COCCCn1c(Cc2ccc(OC)cc2)nc2ccccc21,> 100 µM,> 10.4,9.65 µM,–,Active,Active,–
CCc1ccc(Sc2nc3ccccc3n2CCO)cc1,82.8 µM,18.4,4.5 µM,–,–,–,–
COc1ccc(Cc2nc3ccccc3n2C)cc1,22.1 µM,4.55,4.85 µM,–,Active,Active,–
OCCn1c(Sc2ccc(Br)cc2)nc2ccccc21,71.8 µM,35.7,2.01 µM,1.99 µM,–,–,–
COc1ccc(Cc2nc3ccccc3n2CC(=O)COc2ccccc2)cc1,10.2 µM,2.79,3.67 µM,–,–,–,–
COc1ccc(Oc2nc3ccccc3[nH]2)cc1,> 100 µM,–,–,–,–,–,Not Active
OCCn1c(Sc2ccc(F)cc2)nc2ccccc21,84.7 µM,3.82,22.2 µM,–,–,–,–
COc1ccc(Nc2nc3ccccc3[nH]2)cc1,65.6 µM,10.7,6.13 µM,–,–,–,–
Fc1cccc(Sc2nc3ccccc3[nH]2)c1,> 100 µM,–,–,–,–,–,Not Active
CCCCn1c(Cc2ccc(OC)cc2)nc2ccccc21,> 100 µM,> 15.4,6.48 µM,–,–,–,–
CCCCCn1c(Cc2ccc(OC)cc2)nc2ccccc21,46.5 µM,6.1,7.63 µM,–,–,–,–
COc1ccc(Cc2nc3ccccc3o2)cc1,> 100 µM,> 2.76,36.3 µM,–,–,–,–
COc1ccc(Cc2nc3ccccc3n2CCO)cc1,> 100 µM,> 42.2,2.37 µM,–,Active,Active,–
COc1ccc(Cc2nc3ccccc3n2C[C@@H](O)COc2ccccc2)cc1,9.72 µM,4.03,2.41 µM,–,–,–,–
COc1ccc(Cc2nc3ccccc3n2CCCCCCO)cc1,30.3 µM,9.02,3.36 µM,–,–,Active,–
